Source: patent publication US5900434A, “Method for inhibiting the production of interleukin-1 or tumor necrosis factor-α by administering acanthoic acid” (Korea Institute of Science and Technology, priority 1994, dated 1999)

How the values were obtained:
[1] = system: TNF-α production in human monocytes and macrophages; assay: Inhibition of TNF-α production in human monocytes and macrophages (L929 cell lytic assay); format: cell-based; details: 5 μg/ml or more of acanthoic acid; silica-stimulated; FIG. 3
Experimental: The monocytes and macrophages obtained in Reference Example 1 (1) were incubated with 0.1 to 100 μg/ml of acanthoic acid for an hour and treated with 100 μg/ml of silica for 48 hours. The culture was centrifuged to obtain supernatant, which was then dialyzed against PBS. The activity of IL-1 in the dialyzate was determined in accordance with the method of Gery described in Cellular Immunology, 64, 293-303(1981) as follows. Human monocytes and macrophages were treated with acanthoic acid in accordance with the same procedures as in Example 1, and the activity of TNF-α was measured by cell lytic assay in accordance with the method of Aggarwal as described in J. Biol. Chem., 260, 2345(1985). TNF-α dependent L929 fibroblasts(ATCC CCLl) were suspended in RPMI 1640 medium containing 5% FBS and added to the wells of 96-well incubation plate in an amount of 3×10^4 cells/well. The plate was incubated at 37° C. for 2 hours to make the cells adhere to the incubation plate. […] Then, 100 μl of 33% acetic acid was added to each of the wells to release the dye, and then the O.D. of sample obtained from each of the wells was determined by using ELISA reader with 570 nm reading filter and 405 nm reference filter. The amount of released dye was calculated from the O.D. value with reference to that of the internal control group, i.e., rHu TNF-α(Genzyme).

[2] = system: collagen synthesis in rat pulmonary fibroblast; assay: Inhibition of collagen synthesis in rat pulmonary fibroblasts (indirect ELISA); format: cell-based; details: culture of rat pulmonary fibroblast pretreated with acanthoic acid, silica-stimulated; FIG. 7
Experimental: Fibroblasts were separated from rats by using a modification of the method of Phan, S. H., et al. described in J. Clin. Invest., 76, 241(1985), as follows. A rat was anesthetized with ether and its lungs were isolated on the aseptic worktable. The lungs were cut into small pieces in the size ranging from 2 to 4 mm and suspended in phosphate buffered saline(PBS) containing collagenase and 0.5% trypsin to digest the tissues at 37° C. for 2 hours. The suspension was filtered through sterilized gauze to remove undigested tissues, etc. The separated cells were washed with PBS twice or three times and suspended into RPMI 1640 medium(Gibco, Grand Island, N.Y., U.S.A.) containing 10% fetal bovine serum(FBS, Hyclone, Logan, Utah, U.S.A.). […] For the purpose of confirming the ability of acanthoic acid to suppress the action of IL-1 and TNF-α, its inhibitory effect on the collagen synthesis in rat pulmonary fibroblast and pulmonary tissues was determined. The amount of produced collagen in the culture of rat pulmonary fibroblast was measured by an indirect ELISA method, and that of pulmonary tissue was determined by measuring the concentration of hydroxyproline and calculating the amount of collagen therefrom by using the standard curve of internal control group. […]

rat = details: cited from earlier work

## C=C[C@@]1(C)CC=C2C(CCC3[C@](C)(C(=O)O)CCC[C@@]23C)C1 (single isomer, unassigned; (-)) [acanthoic acid, (-)-pimara-9(11),15-diene-19-oic acid]
[1]
  inhibition of production of TNF-α: at least 90%
[2]
  amount of synthesized collagen: decreases significantly
rat
  minimum lethal dose(MLD): 1000 mg/kg
